Reference: patent US20090012488A1, “Super-Absorber Having Improved Smell-Inhibition” (BASF SE, priority 2006, published 2009)

Target: T1, urease (from jack beans) (Canavalia ensiformis, UniProt P07374)
T1 construct: solid urease (from jack beans); lyophilized 5 U/mg for urea assay in serum; purchased Merck article No. 4194753; host or cells: jack beans (natural source)
Format: biochemical
Details: comparison of inventive with comparative examples, table 1
Method: To evaluate the odor-inhibiting effect of the compositions of the present invention, the inhibition of the activity of urease in the formation of ammonia from urea is determined. The determination is carried out at room temperature. 2 g of the substance to be tested (superabsorbent, composition according to the present invention) are weighed into a 100 ml Erlenmeyer flask. 30 mg of solid urease (from jack beans; lyophilized 5 U/mg for urea assay in serum; Merck, article No. 4194753) is weighed into a 100 ml glass beaker. 50 ml of 0.9% sodium chloride solution in urea (8.56 g/L) are added to the urease. The entire contents of the glass beaker are poured swiftly onto the sample in the Erlenmeyer flask, a diffusion tubelet (Dräger Röhrchen, ammonia 20/a-D, 20-1500 ppm*h, order No. 8101301) is as intended broken open, inserted into a rubber stopper which fits the Erlenmeyer flask and the Erlenmeyer flask is sealed with the stopper such that the open end of the diffusion tubelet points inward. […] The measurement is in each case carried out as a duplicate determination, and the result reported is the average between the two readings which has been rounded to the nearest whole number.

T1 sequence (P07374 whole entry, looked up): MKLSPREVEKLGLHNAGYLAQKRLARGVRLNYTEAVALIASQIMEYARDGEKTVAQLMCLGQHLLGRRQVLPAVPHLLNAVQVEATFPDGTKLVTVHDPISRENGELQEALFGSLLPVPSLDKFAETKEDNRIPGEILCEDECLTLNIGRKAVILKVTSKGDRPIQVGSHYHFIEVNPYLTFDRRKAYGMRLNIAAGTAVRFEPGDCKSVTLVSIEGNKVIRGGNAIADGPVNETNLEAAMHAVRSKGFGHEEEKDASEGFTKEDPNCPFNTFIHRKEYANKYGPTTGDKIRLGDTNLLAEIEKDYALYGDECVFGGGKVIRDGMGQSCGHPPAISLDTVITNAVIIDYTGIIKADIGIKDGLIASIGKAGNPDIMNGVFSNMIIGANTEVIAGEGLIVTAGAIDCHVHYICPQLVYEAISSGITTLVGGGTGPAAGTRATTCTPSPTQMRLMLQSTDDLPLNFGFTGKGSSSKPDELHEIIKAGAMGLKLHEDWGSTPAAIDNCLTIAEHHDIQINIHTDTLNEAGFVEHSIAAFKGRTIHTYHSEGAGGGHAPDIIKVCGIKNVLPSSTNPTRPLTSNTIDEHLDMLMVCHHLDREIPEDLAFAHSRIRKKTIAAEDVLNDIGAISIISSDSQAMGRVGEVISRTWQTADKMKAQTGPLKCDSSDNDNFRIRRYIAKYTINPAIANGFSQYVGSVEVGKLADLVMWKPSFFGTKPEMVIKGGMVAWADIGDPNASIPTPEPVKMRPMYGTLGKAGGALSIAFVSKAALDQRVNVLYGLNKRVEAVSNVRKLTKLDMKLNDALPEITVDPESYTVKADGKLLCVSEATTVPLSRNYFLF

O=CC(=O)O [glyoxylic acid]
odor-inhibiting effect (in words): demonstrates an odor-inhibiting effect
